Where two headings read alike, the source gives them in different places. Values belong to the compound of their own block, whether it stands above or below them.
Assays:
Type in all cases: cell-based
[1] = tested on: Leishmania major-promastigotes (MHOM/IL81/FE/BNI); assay: Alamar Blue activity test against Leishmania major promastigotes
Description: Leishmania major-promastigotes (MHOM/IL81/FE/BNI) were cultivated in blood agar-cultures at 26° C., 5% CO2, and 95% humidity. For the experiment, the promastigotes were washed twice with saline phosphate buffer (PBS) and subsequently suspended (10^8 cells/ml) in Click-RPMI-1640-medium without phenol red, spiked with 10% FCS, 2 mM L-glutamine, 1.0 mM HEPES-buffer, pH 7.2, 100 μg/ml penicillin, […] gentamycin, 7.5% NaHCO3 and 50 μM 2-mercaptoethanol (culture medium). For the determination of activity, 200 μl of the promastigote-suspension in microtiter plates were each incubated with the compounds in a geometric series of dilutions for 24 hours at 26° C., 5% CO2, and 95% humidity. Subsequently, 20 μl Alamar Blue (Trinova Biochem, Gieβen, Germany) were added to each of the microcultures, and the cultures were incubated further. Cultures that only contained medium and the compound, or only cellular suspension (without compound), served as controls. The optical density was measured after another 24 hours with an ELISA-reader at the wave lengths 550 nm and 630 nm. The IC50-values of the compounds were calculated through linear interpolation (J. Mikes, D. Steverding. Parasitol. Int. 2000, 48, 265-269).
Macrophages of the cell line J774.1 were washed and suspended in culture medium ([…]. For the test, 200 μl of the cell suspension and the compounds were pipetted in a geometric series of dilutions into cultures on microtiter plates. Following 24 hours of incubation at 37° C., 5% CO2, and 95% humidity, 20 μl Alamar Blue were added to each micro-culture, and the microtiter plate was incubated further. Micro-cultures with medium and the compound as well as micro-cultures that only contained cellular suspension (without compound), served as controls. The optical density was measured after 24, 48, and 72 hours with an ELISA-reader at the wavelengths 550 nm and 630 nm. The IC50-values of the compounds were calculated using linear interpolation. Amphotericin B served as a reference compound and positive control. […]

[2] = tested on: Trypanosoma brucei brucei strain TC-221; assay: Alamar Blue anti-trypanosome test, bloodstream forms
Description: Bloodstream-forms of the strain TC-221 of Trypanosoma brucei brucei were cultivated in enriched Baltz-culture medium in an atmosphere von 5% CO2 at 37° C. For activity determinations, a defined number of pathogens (10^4 trypanosomes per ml) were incubated in 96-well-plates with the compounds in different concentrations for 48 to 72 hours. The effect of the drugs was quantifiable using the ED50-values with linear interpolation. The trypanocidal activity of the test compounds was determined through measuring absorption on an MR 700 microplate reader (test wavelength 550 nm, reference wavelength 630 nm) by means of Alamar Blue®, an indicator of metabolic cellular functions. The addition of the dye took place 24 hours after starting the incubation. The color change of Alamar Blue® as used in this absorption measurements is based on reduction processes involving NADH or NADH-dependent enzymes. Incubation times and the concentrations of dye as required correlate with the metabolic activities of the trypanosomes. The MIC-value (minimum inhibitory concentration) was determined microscopically through counting of living cells in Neubauer-counting chambers. Suramine Na served both as positive control and reference.
The anti-trypanosomal activities of the compounds of the general structures 1-3 were studied based on a series of examples according to the above-described methods. The therapeutic index is the ratio of the cytoxicity (J774.1 macrophages) to the activities against Trypanosoma brucei brucei.

[3] = tested on: Plasmodium falciparum strain K1; assay: [3H]-hypoxanthine-inclusion-test, anti-plasmodium activity
From the text: For the determination of the anti-plasmodium activities, cultures of Plasmodium falciparum strain K1 (resistant against chloroquine and pyrimethamine) were used. A modification (R. G. Ridley, W. Hofheinz, if Matile, C. Jacquet, A. Dorn, R. Masciadri, S. Jolidon, W. F. Richter, A. Guenzi, M. A. Girometta, H. Urwyler, W. Huber, S. Thaitong, W. Peters, Antimicrob. Agents Chemother. 1996, 40, 1846-1854) of the [^3H]-hypoxanthine-inclusion-test (R. E. Desjardins, C. J. Canfield, D. Haynes, J. Chulay, Antimicrob. Agents Chemother. 1979, 16, 710-718) was used. Human red blood cells infected with P. falciparum (0.3% infection) at a hematocrit of 2.5% (volume fraction of the red blood cells) in RPMI 1640 medium with the serum replacement Albumax II (5 g/L) were incubated with serial dilutions of the drugs in microtiter plates for 48 hours at 37° C. under a CO2-enriched and O2-reduced atmosphere. Then, 0.5 μCi [^3H]-hypoxanthine were added to each well of the microtiter plate, and after a further 24 hours of incubation time the wells were harvested with a Betaplate Cell Harvester onto glass fiber filters, and lysed with distilled water. The incorporation of radio-labeled hypoxanthine (which correlates with the quantity of living parasites) was determined using a scintillation counter. The IC50 value was determined from sigmoidal inhibition curves. The tests were performed in duplicate, and repeated at least once. Parasite cultures without additive served as control (100% incorporation), cultures with a dilution series of chloroquine served as positive control.
(§1) The anti-plasmodia activities of the compounds of the general structures 1-3 were studied based on a series of examples according to the above-described methods. The therapeutic index is the ratio of the IC50 values for rat myoblasts (L-6-cells=cytotoxicity) to the IC50 values for Plasmodium falciparum.

[4] = tested on: rat myoblasts (L-6-cells); assay: Cytotoxicity on rat myoblasts (L-6-cells); settings: result in words
From the text: as §1

[5] = Trypanosoma brucei, T. brucei brucei TC-221, after 48 h, read-out: ED50 (μM) after 48 h
[6] = Trypanosoma brucei, T. brucei brucei TC-221, after 72 h, read-out: ED50 (μM) after 72 h
[7] = P. falciparum strain K1 (resistant against chloroquine and pyrimethamine), read-out: IC50

SMILES: C[C@@H]1[C@H](O)[C@@H](C)/C=C/C=C/C=C/C=C/C=C/C=C/C=C/[C@H](O[C@@H]2O[C@H](C)[C@@H](O)[C@H](N)[C@@H]2O)C[C@@H]2O[C@](O)(C[C@@H](O)C[C@@H](O)[C@H](O)CC[C@@H](O)C[C@@H](O)CC(=O)O[C@H]1C)C[C@H](O)[C@H]2C(=O)O [Amphotericin B, reference compound]
- IC50 [1]: 2510 nM

SMILES: COc1cc(OC)c2c(C)[n+](-c3ccc(C)cc3)c(C)cc2c1 [B]
- IC50 [1]: 2450 nM

SMILES: COc1cc2c(c(OC)c1)C(C)=[N+](c1cccc3ccccc13)[C@@H](C)C2 [Compound 2a, (3S)—N,1′-naphthyl-6,8-dimethoxy-1,3-dimethyl-3,4-dihydroisoquinolinium-trifluoro-acetate]
- EC50 [2, 5]: 0.39 µM
- EC50 [2, 6]: 0.356 µM

SMILES: COc1cc(OC)c2c(C)[n+](-c3ccc(C(C)C)cc3)c(C)cc2c1 [D]
- IC50 [1]: 850 nM

SMILES: COc1cc(OC)c2c(C)[n+](-c3ccccc3OC)c(C)cc2c1 [E]
- EC50 [2, 5]: 0.383 µM
- EC50 [2, 6]: 0.323 µM

SMILES: CCN(CC)CCCC(C)Nc1ccnc2cc(Cl)ccc12 (stereo not shown) [chloroquine, reference compound]
- IC50 ([3]; K1): 119 nM

Further lines, with some results ahead:

- EC50 [2, 5]: 0.325 µM
- EC50 [2, 6]: 0.311 µM
SMILES: COc1ccc(-[n+]2c(C)cc3cc(OC)cc(OC)c3c2C)c(OC)c1 [F]

- IC50 [3, 7]: 56 nM
SMILES: COc1cc(OC)c2c(C)[n+](-c3ccc(Cl)cc3)c(C)cc2c1 [G]

- IC50 [3, 7]: 282 nM
SMILES: COc1cc(OC)c2c(C)[n+](-c3ccc(C(F)(F)F)cc3)c(C)cc2c1 [H]

- IC50 [3, 7]: 211 nM
SMILES: COc1cc(OC)c2c(C)[n+](-c3ccc(NC(C)=O)cc3)c(C)cc2c1 [I]
- cytotoxicity [4]: without a detectable cytotoxicity

- EC50 ([2]; T. brucei brucei TC-221, after 48 h, read-out: ED50 (μM) after 48 h): 0.31 µM
- EC50 ([2]; T. brucei brucei TC-221, after 72 h, read-out: ED50 (μM) after 72 h): 0.32 µM
SMILES: Cc1ccc(C(=O)Nc2ccc(S(=O)(=O)O)c3cc(S(=O)(=O)O)cc(S(=O)(=O)O)c23)cc1NC(=O)c1cccc(NC(=O)Nc2cccc(C(=O)Nc3cc(C(=O)Nc4ccc(S(=O)(=O)O)c5cc(S(=O)(=O)O)cc(S(=O)(=O)O)c45)ccc3C)c2)c1 [Suramin Na, reference compound]

From patent US8173673B2, “Biofilm-inhibiting effect and anti-infective activity of N,C-linked aryl isoquinolines and the use thereof” (Julius-Maximilians-Universitaet Wuerzburg, priority 2006, dated 2012)
